Counter-ions that a name gives are not always drawn.

Experimental findings from patent US5304549A, “Amino acid derivatives” (Hoffmann-La Roche Inc., priority 1991, dated 1994) are described below.

The target of the assay is T1, collagenase obtained from a culture of human synovial fibroblasts (Homo sapiens, UniProt P03956).
T1 construct: endogenous in cells; host or cells: human synovial fibroblasts in culture (conditioned medium)
T1 sequence (P03956 100-469): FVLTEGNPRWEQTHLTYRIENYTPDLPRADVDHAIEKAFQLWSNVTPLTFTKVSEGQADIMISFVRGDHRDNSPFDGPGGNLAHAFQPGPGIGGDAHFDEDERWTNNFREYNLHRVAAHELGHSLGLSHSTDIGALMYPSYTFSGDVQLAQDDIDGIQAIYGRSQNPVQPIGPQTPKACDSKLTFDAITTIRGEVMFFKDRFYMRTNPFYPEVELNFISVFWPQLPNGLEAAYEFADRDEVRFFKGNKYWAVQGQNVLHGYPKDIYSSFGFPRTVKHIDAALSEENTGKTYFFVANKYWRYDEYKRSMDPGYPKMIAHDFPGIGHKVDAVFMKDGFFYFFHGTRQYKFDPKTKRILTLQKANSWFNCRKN
As to the kind of experiment: in vitro collagenase inhibiting activity (14C-acetylated collagen type I from rat tail tendons as substrate, microtitre plate assay). It is filed as biochemical. Particulars: human synovial fibroblast collagenase, trypsin-activated; 14C-acetylated rat tail tendon collagen type I.
Turning to `CNC(=O)[C@@H](NC(=O)C(CC(C)C)CP(=O)(O)CN1C(=O)c2cccc3c(O)c(Br)cc(c23)C1=O)C(C)(C)C` (single isomer, unassigned) [Compound B, N^2-[2(R or S)-[[[(5-bromo-2,3-dihydro-6-hydroxy-1,3-dioxo-1H-benz[d,e]isoquinol-2-yl)methyl](hydroxy)phosphinyl]methyl]-4-methylvaleryl]-N^1,3-dimethyl-L-valinamide], the IC50 was 4 nM.
In the case of `CNC(=O)C(NC(=O)C(CC(C)C)C(N)P(=O)(O)CN1C(=O)c2cccc3c(O)c(Br)cc(c23)C1=O)C(C)(C)C` (single isomer, unassigned) [Compound C, N^2-[2-(R or S)-[[(R)-(amino)-[(5-bromo-2,3-dihydro-6-hydroxy-1,3-dioxo-1H-benz[d,e]isoquinol-2-yl)methyl](hydroxy)phosphinyl]methyl]-4-methylvaleryl]-N^1,3-dimethyl-L-valinamide hydrobromide], the IC50 is 9 nM.
Then `CNC(=O)[C@@H](NC(=O)[C@H](CC(C)C)C(CN1C(=O)CCC1=O)C(=O)NO)C(C)(C)C` (single isomer, unassigned) [Compound H, N^2-[2(R)-[1(R or S)-(hydroxycarbamoyl)-2-succinimidoethyl]-4-methylvaleryl]-N^1,3-dimethyl-L-valinamide], with 0.5 nM; and `CNC(=O)[C@@H](NC(=O)[C@H](CC(C)C)C(CCCc1ccccc1)C(=O)NO)C(C)(C)C` (single isomer, unassigned) [Compound G, N^2-[2(R)-[1(R or S)-(hydroxycarbamoyl)-4-phenylbutyl]-4-methylvaleryl]-N^1,3-dimethyl-L-valinamide], with 1.9 nM; and `CNC(=O)[C@@H](NC(=O)[C@H](CC(C)C)C(CCCC(=O)OC)C(=O)NO)C(C)(C)C` (single isomer, unassigned) [Compound F, N^2-[2(R)-[1(R or S)-(hydroxycarbamoyl)-4-(methoxycarbonyl)butyl]-4-methylvaleryl]-N^1,3-dimethyl-L-valinamide], with 0.9 nM.
`CNC(=O)[C@@H](NC(=O)C(CC(C)C)[C@H](C)C(=O)NO)C(C)(C)C` (single isomer, unassigned; isomer 2) [Compound D, N^2-[2(R or S)-[1(S)-(hydroxycarbamoyl)ethyl]-4-methylvaleryl]-N^1,3-dimethyl-L-valinamide (isomer 2)] gave an IC50 of 2 nM.
For `CNC(=O)[C@@H](NC(=O)[C@@H](CC(=O)NO)CC(C)C)C(C)(C)C` [Compound A, N^2-[2(R)-[Hydroxycarbamoylmethyl]-4-methylvaleryl]-N^1,3-dimethyl-L-valinamide] the value was 4 nM.

For orientation: IC50 means the midpoint of a concentration-inhibition curve.
